Test results reported in paper PMC4993599 (Bioorganic & medicinal chemistry letters, 2016).

Columns and labels:
[1] = Lipophilicity by analytical reverse phase HPLC; type: physicochemical
TSPO = TSPO (Rattus norvegicus, UniProt P16257); assay: C6 glioma cell lysate binding assay; details: for binding affinity (in words): TSPO

Row | SMILES | lipophilicity (in words) [1] | binding affinity (in words) (TSPO) | also measured
1 | CCc1cc(CC)n2nc(-c3ccc(OC)cc3)c(CC(=O)N3CCCCC3)c2n1 [Compound 25] | – | very poor binding affinity | –
2 | CCc1cc(CC)n2nc(-c3ccc(OC)cc3)c(CC(=O)N3CCC3)c2n1 [Compound 23] | – | very poor binding affinity | –
3 | CCCCCCN(CCCCCC)C(=O)Cc1c(-c2ccc(OC)cc2)nn2c(CC)cc(CC)nc12 [Compound 14] | extremely lipophilic | – | –
4 | CCc1cc(CC)n2nc(-c3ccc(OC)cc3)c(CC(=O)N(CC)C(C)(C)C)c2n1 [Compound 16] | – | – | decrease of affinity when substituting ethyl groups with t-butyls (TSPO; compound 16 relative to compound 10): over 300 fold
5 | CCN(CC)C(=O)Cc1c(-c2ccc(OC)cc2)nn2c(C)cc(C)nc12 [Compound 8, DPA-713, reference compound] | – | – | log P7.5 ([1]; reverse phase HPLC, averaged from triple runs): 2.40

More lines, main results first:

Row | lipophilicity (in words) [1] | binding affinity (in words) (TSPO) | SMILES | also measured
6 | extremely lipophilic | – | CCCCCN(CCCCC)C(=O)Cc1c(-c2ccc(OC)cc2)nn2c(CC)cc(CC)nc12 [Compound 13] | –
7 | – | very poor binding affinity | CCc1cc(CC)n2nc(-c3ccc(OC)cc3)c(CC(=O)N3CCCC3)c2n1 [Compound 24] | –
8 | extremely lipophilic | – | CCCCN(CCCC)C(=O)Cc1c(-c2ccc(OC)cc2)nn2c(CC)cc(CC)nc12 [Compound 12] | –
